US8685462B1, “Whole, leech saliva product and applications thereof” (priority 2012, dated 2014)

Legend:
[1] = tested on: induced-diabetic rats; assay: Antihyperglycemic activity: fasting blood glucose in alloxan-induced diabetic rats; format: in vivo, rat
[2] = tested on: Cryptococcus neoformans ATCC90112; assay: Kirby-Bauer disc diffusion; conditions: reference antibiotic disc, 100 unit
[3] = tested on: Candida albicans ATCC10231; assay: Kirby-Bauer disc diffusion; conditions: reference antibiotic disc, 100 unit

Row | Compound | FBG after two hours of injection ([1]; diabetic rats, s.c., two hours) | difference between normal rats and treated diabetic rats ([1]; either dose) | FBG after 8 hours of treatment ([1]; lower dose of insulin (10 units/kg b.w)) | Zone of inhibition [2] | Zone of inhibition [3]
1 | insulin: insulin from bovine pancreas (≧27 units/mg), suspension in distilled water | sharp significant decrease | No significant difference | returned to the diabetic state | – | –
2 | C[C@@H]1[C@H](O)[C@@H](C)/C=C/C=C/CC/C=C/C=C/C=C/C=C/C(O[C@H]2O[C@H](C)[C@@H](O)[C@H](N)[C@@H]2O)CC2O[C@](O)(CC(O)C(O)CCC(O)CC(O)CC(O)CC(=O)O[C@H]1C)CC(O)C2C(=O)O (some centres unmarked) [Nystatin, nystatin] | – | – | – | 9 mm | 10 mm
